Measured values published in patent US20080182908A1, “PHARMACEUTICAL COMPOSITIONS COMPRISING MEMANTINE” (priority 2007, published 2008).
Counter-ions that a name gives are not always drawn.

Legend:
[1] = Physicochemical properties of the active ingredient (density, flow, particle size distribution); conditions: active ingredient used in Example 1
From the text: The different physicochemical properties of the active ingredient as well as excipients are to be considered, as these properties affect processing and the formulation properties of the compositions. Various physicochemical properties include, but are not limited to, particle size of the active ingredient, density (including bulk density and tapped density), compressibility index, Hausner's ratio, angle of repose, etc. The percentages of particles with different sizes that exist in a total powder, is the particle size distribution. It is represented in certain ways. Particle size is the maximun dimension of a particle, frequently expressed in micrometers. Particle size distributions can be expressed in terms of D10, D50, D90 and D[4,3]. The D10, D50 and D90 represent the 10th, median or the 50th percentile, and the 90th percentile of the particle size distribution, respectively, as measured by volume. That is, the D10, D50, D90 are values of the distribution such that 10%, 50%, and 90% of the particles have a size of this value or less […]. D50 also known as median diameter of particles. It is one of the important parameters representing characteristics of particle of powder. For a sample, if D50=5 μm, it means that 50% of the particles are smaller than 5 μm. Similarly, if D10=5 μm, 10% of the particles are less than or equal to 5 μm and if D90=5 μm, 90% of the particles have sizes less than or equal to 5 μm. D[4,3] is the volume moment mean of the particles or the volume weighted particle size.

[2] = cited from earlier work
[3] = tested on: NMDA (N-methyl-D-aspartate) receptor; conditions: noncompetitive NMDA receptor antagonist; cited from earlier work

Structure (SMILES) | Bulk density [1] [g/mL] | Compressibility index [1] | Hauser's ratio [1] | Particle size distribution: D(10) [1] [μm] | Particle size distribution: D(50) [1] [μm] | Particle size distribution: D(90) [1] [μm] | Tapped density [1] [g/mL] | Solubility in water [2] | Affinity for the receptor [3] | Blocking/unblocking kinetics [3]
CC12CC3CC(C)(C1)CC(N)(C3)C2 [memantine hydrochloride] | 0.317 | 31.83 | 1.467 | 10.744 | 60.545 | 210.482 | 0.465 | highly soluble in water |  | 
C[C@]12CC3C[C@](C)(C1)C[C@@](N)(C3)C2 [Memantine, 1-amino-3,5-dimethyladamantane] |  |  |  |  |  |  |  |  | low to moderate affinity | rapid blocking/unblocking kinetics
